{
  "source": "patent US12377106B2",
  "about": "“Piperidinylpyrazine-carboxamide compounds for treating and preventing cancer and for degrading BTK” (NURIX THERAPEUTICS, INC., priority 2021, dated 2025)",
  "system": "BTK",
  "assay": "Flow cytometry assay for BTK degradation in patient circulating B cells (CD19+CD3-), Phase 1a/1b trial",
  "assay_type": "in vivo, human",
  "method": "Compound 149 was administered to human patients in a Phase 1a/lb trial investigating safety and tolerability in relapsed and refractory B cell malignancies. Compound 149 was administered as a once daily oral dose first in an accelerated Phase 1a dose escalation starting at 100 mg on Day 1. The first dose levels are explored in a single patient cohort until a grade 2 adverse event has been observed. Thereafter, a traditional 3+3 escalation design is used. This 100 mg starting dose was predicted to provide similar exposure as that observed in non-human primate studies. Once a dose is selected based on all safety, efficacy, pharmacokinetic, and pharmacodynamic data available, the trial will expand in up to five expansion cohorts.\n[…] of Bruton's tyrosine kinase were measured by flow cytometry in circulating B cells, including disease cells and provided in FIG. 2. This mean fluorescence intensity directly correlates with the levels of BTK protein observed in a Western blot. […] The patient's BTK levels start at different levels yet, the treatment results in the same level of degradation by Day 15, which is the first measurement after steady state concentration is achieved.\nThe 100 mg patient achieved greater than 80% BTK degradation at steady state. All patients at the 200 mg dose level achieved greater than 90% degradation at steady state.\nThe data is summarized in Table 3 below which provides the average percent BTK degradation during the last 2 weeks of the first cycle (namely Days 15, 22, and 29). In Cohort 2 (200 mg), well above 90% of BTK degradation was achieved during the steady state.\nFollowing informed consent, peripheral blood was obtained from all patients for baseline and post Compound 149 therapy assessment of BTK and Ikaros degradation. Patient blood (5 mL) was drawn and immediately fixed in a 5 mL CytoChex™ BCT tube and stored at ambient temperature until assessment via flow cytometry. Blood samples were analyzed within 3 days post sample collection at Precision for Medicine. Additional blood was also drawn into 8 mL BD Vacutainer® CPT™ Cell Preparation Tube with Sodium Citrate. Peripheral blood mononuclear cells (PBMCs) were processed, and viability frozen according to manufacturer's protocol.\nFor flow staining, 1 mL blood was treated with 1×BD PharmLyse to facilitate red blood cell lysing. Remaining leukocytes were washed with staining buffer (SB) containing Dulbecco's Phosphate Buffered Saline (DPBS) without Calcium or Magnesium, 1% bovine serum albumin (BSA), 10 mM HEPES, 1 mM EDTA, and 0.01% sodium azide. Cell pellet was stained with fluorophore-conjugated cell surface markers antibodies against CD45, CD3, CD4, CD8, CD14, CD16, CD19 and CD56 prepared in BD Brilliant Stain buffer for 25 minutes at room temperature.\nFollowing cell surface staining, cells were washed twice with SB and then fixed and permeabilized for one hour at room temperature with eBioscience FoxP3/Transcription Factor Staining Buffer set according to the manufacturer's instructions. Washed cells were then stained with unconjugated BTK antibody made in 1× Permeabilization buffer) for 30 minutes. This was followed by another 30-minute incubation with anti-rabbit Alexa488 secondary antibody also prepared in 1× Permeabilization buffer for BTK detection. After incubation, the cells were washed twice with 1× Permeabilization Buffer and then resuspended in SB. Control samples containing fluorescence minus two markers (FM2) were used for background controls and were stained for all surface markers in the panel excluding BTK.\nThe samples were transferred to BD TruCount tubes before acquisition on a BD LSR Fortessa using predetermined BD FACS Diva software (v8.0) application settings. Data analysis was performed using FlowJo software (v10).\nSingle lymphocytes were gated for B cells (CD19+CD3−), and the geometric mean fluorescence intensity (MFI) of BTK was calculated. The MFI of B cells in FM2 control was used to quantify background staining. […]",
  "key": {"[1]": {"settings": "average of patients 1, 2, 3, 4, 6 (100 mg and 200 mg)"}, "[2]": {"settings": "average of patients with data (100 mg and 200 mg)"}, "[3]": {"settings": "patient 1 (CLL), 100 mg once daily oral"}, "[4]": {"settings": "patient 2 (CLL), 200 mg once daily oral"}, "[5]": {"settings": "patient 3 (MCL), 200 mg once daily oral"}, "[6]": {"settings": "patient 4 (WM), 200 mg once daily oral"}, "[7]": {"settings": "patient 6 (SLL), 200 mg once daily oral"}},
  "note": "Entries after “also recorded” stand apart in the source; their conditions may differ.",
  "data": [
    {"smiles": "NC(=O)c1ncc(N2CCCCC2)nc1Nc1ccc(C2CCN(C[C@@H]3CCN(c4ccc5c(c4)C(=O)N(C4CCC(=O)NC4=O)C5=O)C3)CC2)cc1", "note": "(some centres unmarked) [Compound 149]", "values": [
      {"measurement": "day on which maximum BTK degradation was achieved", "setting": "DLBCL patient, 300 mg, BTK MFI in CD19+ B cells, FIG. 8", "value": 8, "unit": "days"},
      {"measurement": "duration of BTK degradation", "setting": "DLBCL patient, 300 mg, FIG. 8", "value": "sustained through day 29"},
      {"measurement": "duration of BTK degradation", "setting": "after steady state Cycle 1 Day 15, prior to starting Cycle 2", "value": "sustained through Cycle 1 Day 29"},
      {"measurement": "level of BTK protein in circulating B cells (BTK MFI)", "setting": "all patients treated, once daily oral regimen", "value": "dramatically decreases the level of BTK protein in all patients treated; also recorded: time-dependent decrease of BTK levels"},
      {"measurement": "% BTK Degraded, Day 2, Average", "setting": "[1]", "value": 56.5, "unit": "%"},
      {"measurement": "% BTK Degraded, Day 8, Average", "setting": "[1]", "value": 80.4, "unit": "%"},
      {"measurement": "% BTK Degraded, Day 22, Average", "setting": "[2]", "value": 92.1, "unit": "%"},
      {"measurement": "% BTK Degraded, Day 29, Average", "setting": "[2]", "value": 90.1, "unit": "%"},
      {"measurement": "% BTK Degraded, Day 15, Average", "setting": "average of patients with data (100 mg and 200 mg), steady state Cycle 1 Day 15", "value": 90.1, "unit": "%"},
      {"measurement": "BTK Degradation, Day 2", "setting": "[3]", "value": 62.8, "unit": "%"},
      {"measurement": "BTK Degradation, Day 8", "setting": "[3]", "value": 76.9, "unit": "%"},
      {"measurement": "BTK Degradation, Day 15", "setting": "[3]", "value": 78.0, "unit": "%"},
      {"measurement": "BTK Degradation, Day 22", "setting": "[3]", "value": 85.5, "unit": "%"},
      {"measurement": "BTK Degradation, Day 29", "setting": "[3]", "value": 82.0, "unit": "%"},
      {"measurement": "BTK Degradation, Day 56", "setting": "[3]", "value": 81.4, "unit": "%"},
      {"measurement": "BTK Degradation, Avg. Steady State", "setting": "patient 1 (CLL), 100 mg once daily oral, average of Days 15, 22 and 29", "value": 81.8, "unit": "%"},
      {"measurement": "BTK Degradation, Day 2", "setting": "[4]", "value": 75.1, "unit": "%"},
      {"measurement": "BTK Degradation, Day 8", "setting": "[4]", "value": 90.5, "unit": "%"},
      {"measurement": "BTK Degradation, Day 15", "setting": "[4]", "value": 96.1, "unit": "%"},
      {"measurement": "BTK Degradation, Day 22", "setting": "[4]", "value": 95.4, "unit": "%"},
      {"measurement": "BTK Degradation, Day 29", "setting": "[4]", "value": 96.1, "unit": "%"},
      {"measurement": "BTK Degradation, Day 56", "setting": "[4]", "value": 96.0, "unit": "%"},
      {"measurement": "BTK Degradation, Avg. Steady State", "setting": "patient 2 (CLL), 200 mg once daily oral, average of Days 15, 22 and 29", "value": 95.9, "unit": "%"},
      {"measurement": "BTK Degradation, Day 2", "setting": "[5]", "value": 74.0, "unit": "%"},
      {"measurement": "BTK Degradation, Day 8", "setting": "[5]", "value": 92.7, "unit": "%"},
      {"measurement": "BTK Degradation, Day 15", "setting": "[5]", "value": 94.6, "unit": "%"},
      {"measurement": "BTK Degradation, Day 22", "setting": "[5]", "value": 95.4, "unit": "%"},
      {"measurement": "BTK Degradation, Day 29", "setting": "[5]", "value": 92.3, "unit": "%"},
      {"measurement": "BTK Degradation, Day 56", "setting": "[5]", "value": 94.7, "unit": "%"},
      {"measurement": "BTK Degradation, Avg. Steady State", "setting": "patient 3 (MCL), 200 mg once daily oral, average of Days 15, 22 and 29", "value": 94.1, "unit": "%"},
      {"measurement": "BTK Degradation, Day 2", "setting": "[6]", "value": 63.6, "unit": "%"},
      {"measurement": "BTK Degradation, Day 8", "setting": "[6]", "value": 56.8, "unit": "%"},
      {"measurement": "BTK Degradation, Day 15", "setting": "[6]", "value": 91.5, "unit": "%"},
      {"measurement": "BTK Degradation, Avg. Steady State", "setting": "patient 4 (WM), 200 mg once daily oral, only Day 15 available", "value": 91.5, "unit": "%"},
      {"measurement": "BTK Degradation, Day 2", "setting": "[7]", "value": 6.9, "unit": "%"},
      {"measurement": "BTK Degradation, Day 8", "setting": "[7]", "value": 85.1, "unit": "%"},
      {"measurement": "BTK degradation at 24 hours after the initial dose", "setting": "patients 1, 2, 3 and 4, 100 mg or 200 mg", "value": "62.8-75.1%"},
      {"measurement": "BTK degradation at steady state", "setting": "the 100 mg patient", "value": "greater than 80%"}
    ]}
  ]
}
